Here are results for one compound from paper PMC5908160, “Inhibition of sperm motility in male macaques with EP055, a potential non-hormonal male contraceptive” (PLoS ONE, 2018).

One data set concerns the target EPPIN (Homo sapiens, UniProt O95925). As to the kind of experiment: AlphaScreen assay of a-EAb binding to EPPIN. Particulars: n = 4, read-out: IC50, inhibition of a-EAb binding to EPPIN. Here is the method: The AlphaScreen® assay was carried as previously described. Briefly, recombinant histidine-tagged recombinant EPPIN was pre-incubated with Ni-NTA chelate donor beads (catalog number AS101, Perkin Elmer, Waltham MA) and anti-Eppin 007 antibody was pre-incubated with Protein A acceptor beads (catalog number 6760136, Perkin Elmer, Waltham MA) for 30 minutes. Equal volumes of donor and acceptor bead mixtures were pipetted into white opaque 384-well microplates (OptiPlate-384; PerkinElmer, Waltham, MA) in a final volume of 30 μL. Plates were covered with top seal and transferred to a Synergy 2 Multiplatform automated plate reader (Biotek, Winooski, VT). After shaking for 2 min, plates were read with an excitation 680/30 filter, an emission 570/100 filter and data acquired using Gen5 software (Biotek). Each set of samples was pipetted in 4 replicates. […] A specific signal for each time point was calculated by subtracting the background signal (obtained in the absence of EPPIN) from its respective total signal. […] Non-specific interactions of compound with assay components were measured at the same time with the IgG detection kit ([…] biotinylated rabbit IgG) to generate the bead interaction: 10 μg/ml donor and acceptor beads. […]
In general terms: In Alpha technology, singlet oxygen from a donor bead excites a nearby acceptor bead.

The next data set relates to human sperm. As to the kind of experiment: CASA (Computer Assisted Sperm Analysis) assay of human sperm motility. As to conditions: n = 4 donors, read-out: average relative motility index (RMI) IC50. Type of data set: cell-based. The method, then:
Human semen samples were obtained from the Department of Obstetrics and Gynecology, University of North Carolina Memorial Hospital, Chapel Hill, NC. […] Semen samples were allowed to liquefy for 30 minutes and subjected to standard semen analysis to determine acceptability before freezing. All samples were stored in liquid nitrogen, and de-identified by the Department of Obstetrics and Gynecology, University of North Carolina Memorial Hospital, Chapel Hill, NC before further processing. A density gradient (Isolate catalog number 99264, Irving Scientific, Irving CA, or SpermCare catalog number 2221 and 2222, InvitroCare Inc., Frederick MD) was used to prepare spermatozoa for further analysis. At least 3 independent experiments were done per assay, each using a single donor.
Computer Assisted Sperm Analysis (CASA) was conducted as previously described. Briefly sperm were washed after the density gradient with EP buffer-0.4% BSA and resuspended in modified M16 for compound treatments. Sperm were diluted to 5 x 10^6/mL in 12x75 mm glass tubes with the appropriate treatment and incubated at 37°C in 5% CO2. […] The relative mobility index (RMI) is a measure of the effect of compound on sperm and is calculated as the VSL x %normal motility and normalized to the appropriate DMSO control.

A short description of data set [1]: EP012 plasma half-life in rats. Type of data set: in vivo. Particulars: rat, iv, preliminary testing, 1 mg/kg i.v. bolus. Here is the method:
Preliminary half-life measurements for EP012 were carried out by Calvert Laboratories ([…]
The intravenous formulation was prepared by mixing an appropriate amount of EP012 (1 mg/kg) with an appropriate volume of intravenous vehicle (DMSO). The pH of the intravenous formulations was confirmed to be 7.4-7.6 and instilled through a syringe filter for sterilization prior to dosing. Three Sprague Dawley male rats (8-14 weeks; 300 to 325 g) were surgically implanted with a catheter in a jugular vein using polyurethane tubing and glycerol or dextrose solution as the lumen lock solution. The intravenous formulation was administered as a bolus injection into a lateral tail vein.
Serial blood samples (~0.30 mL each), were obtained from each animal via the jugular vein catheter at the following timepoints post-dose: 0.083, 0.167, 0.333, 0.5, 1, 2, 4, 8, 12, and 24 hours. Plasma (~125 µL per sample) was harvested following centrifugation of the chilled blood samples at 3000 RPM for 10 minutes at +4 °C. Derived plasma was transferred into prelabeled plastic vials and stored frozen at approximately -70 °C or lower until processing.
Sample preparation and LC-MS/MS analysis were done by OpAns LLC (Durham, NC). Plasma samples (both rat and macaque) were thawed at room temperature and processed by adding 160 µL of methanol (including 10 µL internal standard) to 25 µL of the sample. […]

EPPIN, sequence (O95925 22-133): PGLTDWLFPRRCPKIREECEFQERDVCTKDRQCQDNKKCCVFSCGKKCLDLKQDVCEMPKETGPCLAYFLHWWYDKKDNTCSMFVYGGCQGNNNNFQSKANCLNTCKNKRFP

By IC50 is commonly meant the concentration needed to halve the response being measured. By half-life is commonly meant the time needed for the level to fall by half in the phase considered. For the compound `COC(=O)NNc1nc(Nc2ccc(NC(=O)OC)c(O)c2)nc(SCC(=O)O)n1` [EP012], the IC50 was found to be 55.4 µM at EPPIN and 33.4 µM in the data set with human sperm. Besides, the half-life in data set [1] is under 4 min.
